The record followed here is ChEMBL document CHEMBL3396967, “Discovery of anthranilamides as a novel class of inhibitors of neurotropic alphavirus replication” (Bioorg Med Chem, 2015).

Molecules are shown by their SMILES. Active and inactive are the calls of the source. The calls are words filed in the database; no cut-off is given here.

The nature of series [1]: Cytotoxicity against human BE(2)-C cells after 18 to 20 hrs by MTT assay. The series is classed as cell-based. (In general: Tetrazolium assays rely on reduction of a dye to a coloured formazan, in cell work by metabolically active cells.)
Series [2] concerns the target MDR1 (ABCB1, P-glycoprotein) (Homo sapiens, UniProt P08183). In words: Inhibition of human MDR1 expressed in MDCK2 cells assessed as increase of rhodamine 123 uptake at 30 uM up to 240 mins relative to 5 uM tariquidar. The series is classed as ADME, cell-based, MDCK-II. The note with it: MDCK2 cells expressing human MDR1, probe rhodamine 123, read-out: Activity.
Series [3] is described as follows: Kinetic solubility of the compound in WEEV replication assay medium in presence of 10% fetal bovine serum. It counts as physicochemical. The note with it: for Kinetic_solubility: serum; for solubility kinetic: WEEV replication assay medium with 10% fetal bovine serum, read-out: Kinetic_solubility.
For series [4], the system named is Western equine encephalitis virus. In words: microbe, parasite or virus in culture. The conditions noted are these: BE(2)-C.
Series [5] has as its system Liver. In words: (§1) Half life in BALB/c mouse liver microsomes at 1 uM in presence of NADPH by HPLC-MS/MS method. The series is classed as ADME. The conditions noted are these: microsomes, 1 µM. A general note: Liver microsomes are a subcellular fraction often used to study metabolism.
Series [6] relates to Fort Morgan virus. It counts as functional.
Series [7] deals with Fort Morgan virus. The series is classed as functional. The source holds these as a separate data set.
Series [8] relates to Western equine encephalitis virus. The series is classed as functional.
Series [9] has as its system Fort Morgan virus. The series is classed as functional. The source holds these as a separate data set.
Series [10] deals with Fort Morgan virus. The series is classed as functional. The source holds these as a separate data set.
Series [11] concerns Western equine encephalitis virus. It counts as functional. This is another data set of the same source.
Series [12] can be described thus: as §1. The series is classed as ADME. The conditions noted are these: BALB/c, liver microsomes.
In series [13] the test system is Fort Morgan virus. In words: Antiviral activity against Fort Morgan virus infected in HEK293 cells assessed as reduction of viral titer by plaque reduction assay relative to untreated control. The series is classed as functional, cell-based.
Series [14] in a line: Inhibition of host cell cap-dependent translation in Cricetinae BSR-T7 cells assessed as suppression of pSV40-LUC activity at 0.1 to 10 uM after 20 hrs. The series is classed as functional, cell-based.
Series [15] deals with Venezuelan equine encephalitis virus. As to the kind of experiment: Antiviral activity against Venezuelan equine encephalitis virus TC-83 vaccine infected in HEK293 cells assessed as reduction of viral titer at 25 uM by plaque reduction assay relative to untreated control. It counts as functional.
Series [16] concerns California encephalitis virus. As to the kind of experiment: Antiviral activity against California encephalitis virus infected in HEK293 cells assessed as reduction of viral titer at 25 uM by plaque reduction assay relative to untreated control. It counts as functional. On the technique in general: In a plaque reduction assay, fewer plaques than in the control indicate reduced infectivity or spread.

The test system of series [17] is Encephalomyocarditis virus. As to the kind of experiment: Antiviral activity against Encephalomyocarditis virus infected in HEK293 cells assessed as reduction of viral titer at 25 uM by plaque reduction assay relative to untreated control. The series is classed as functional.
Series [18] concerns BSR-T7. As to the kind of experiment: Inhibition of host cell cap-independent translation in Cricetinae BSR-T7 cells assessed as suppression of pT7/CITE-LUC activity at 0.1 to 10 uM after 20 hrs. It counts as functional, cell-based.
Series [19] concerns the target ATP-dependent translocase ABCB1 (Homo sapiens, UniProt P08183). As to the kind of experiment: Inhibition of human MDR1 expressed in MDCK2 cells assessed as increase of rhodamine 123 uptake at 5 uM up to 240 mins. It counts as ADME, cell-based. Details: scale not given: the % may be the effect or the level left. The note with it: mdck-ii, 4 h.

Chain of MDR1 (ABCB1, P-glycoprotein) (P08183 whole entry): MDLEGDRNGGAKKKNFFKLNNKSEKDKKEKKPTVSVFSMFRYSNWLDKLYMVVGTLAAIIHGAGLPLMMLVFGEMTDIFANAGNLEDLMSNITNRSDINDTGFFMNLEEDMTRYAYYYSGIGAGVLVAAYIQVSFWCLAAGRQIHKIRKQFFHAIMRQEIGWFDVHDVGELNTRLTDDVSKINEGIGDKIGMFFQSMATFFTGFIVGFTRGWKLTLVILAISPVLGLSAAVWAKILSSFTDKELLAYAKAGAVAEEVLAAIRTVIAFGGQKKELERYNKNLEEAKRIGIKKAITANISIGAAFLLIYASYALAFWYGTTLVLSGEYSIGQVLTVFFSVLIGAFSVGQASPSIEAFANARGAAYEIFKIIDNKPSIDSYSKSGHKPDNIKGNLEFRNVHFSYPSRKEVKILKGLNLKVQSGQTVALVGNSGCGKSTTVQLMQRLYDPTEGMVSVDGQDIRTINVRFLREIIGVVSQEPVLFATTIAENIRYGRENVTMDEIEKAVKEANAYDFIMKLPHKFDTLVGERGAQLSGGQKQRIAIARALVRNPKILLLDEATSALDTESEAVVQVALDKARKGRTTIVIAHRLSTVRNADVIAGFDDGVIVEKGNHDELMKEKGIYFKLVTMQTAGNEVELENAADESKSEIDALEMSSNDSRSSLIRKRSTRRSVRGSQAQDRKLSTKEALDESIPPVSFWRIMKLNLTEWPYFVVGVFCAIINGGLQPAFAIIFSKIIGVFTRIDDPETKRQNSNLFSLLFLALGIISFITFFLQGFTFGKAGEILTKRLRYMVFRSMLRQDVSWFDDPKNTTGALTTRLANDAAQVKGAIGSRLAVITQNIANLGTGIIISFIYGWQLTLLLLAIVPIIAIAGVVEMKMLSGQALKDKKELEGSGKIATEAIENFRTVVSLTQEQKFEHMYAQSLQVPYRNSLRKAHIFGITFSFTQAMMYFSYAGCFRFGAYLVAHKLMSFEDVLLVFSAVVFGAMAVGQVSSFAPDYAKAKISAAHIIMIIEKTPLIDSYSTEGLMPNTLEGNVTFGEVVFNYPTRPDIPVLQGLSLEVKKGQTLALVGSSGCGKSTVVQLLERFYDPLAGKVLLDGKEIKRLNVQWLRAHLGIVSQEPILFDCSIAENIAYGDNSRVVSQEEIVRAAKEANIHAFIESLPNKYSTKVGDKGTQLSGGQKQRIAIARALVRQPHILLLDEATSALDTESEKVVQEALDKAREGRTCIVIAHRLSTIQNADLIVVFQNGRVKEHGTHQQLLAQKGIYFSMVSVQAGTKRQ
Chain of ATP-dependent translocase ABCB1 (P08183 whole entry): as above

What is called CC50 is the concentration giving 50% cytotoxicity. For orientation: IC50 means the concentration that inhibits the measured activity by half. Regarding `CN(c1ccc(Cl)cc1)c1ccccc1C(=O)N1CCC(C(=O)NCCc2ccncc2)CC1`, the CC50 in [1] is over 100 µM. In addition, in [2], the inhibition at 4 h, 30 µM was 3.9%. Besides, the Kinetic_solubility in series [3] was over 250 µg/mL. In addition, the IC50 in series [4] came out at 15.4 µM.

Compound `O=C(NCCc1ccncc1)C1CCN(C(=O)c2ccccc2NCc2ccccc2)CC1` gave a CC50 in series [1] of 92.2 µM. In series [2], the inhibition at 4 h, 30 µM was determined as 2.5%. For the same compound, the Kinetic_solubility in series [3] is over 250 µg/mL. Moreover, half-maximal inhibition in series [4] (IC50) required 19 µM.

In turn, `O=C(NCCc1ccncc1)C1CCN(C(=O)[C@H]2CCCN2Cc2ccc(Cl)cc2)CC1` returned a CC50 in [1] of over 100 µM. Further, in [4], the IC50 is 53.5 µM.

With `O=C(NCCc1ccncc1)C1CCN(C(=O)NCc2ccc(Cl)cc2)CC1`, the CC50 in series [1] was over 100 µM. Further, in series [4], the IC50 is 60.2 µM.

In series [1], `O=C(NCCc1ccncc1)C1CCN(C(=O)c2ccccc2Oc2ccc(Cl)cc2)CC1` yielded a CC50 of 56 µM. Also, in series [2], the inhibition at 4 h, 30 µM was 9.3%. For the same compound, in series [5], the t1/2 amounted to 18 min. For the same compound, in series [3], the solubility kinetic was determined as 62 µg/mL. For the same compound, the outcome in [6] (25 uM), in series [7] (25 uM), in [8] (25 uM), in series [9] (5 uM), in [10] (5 uM) and in [11] (5 uM) was inactive. For the same compound, the IC50 in series [4] amounted to 6.1 µM.

As to `O=C(NCCc1ccncc1)C1CCN(C(=O)[C@@H]2CCCN2C(=O)c2ccc(Cl)cc2)CC1`, the IC50 in series [4] is over 100 µM.

Regarding `O=C(c1ccc(Cl)cc1)c1ccccc1C(=O)N1CCC(C(=O)NCCc2ccncc2)CC1`, the CC50 in series [1] was over 50 µM. Also, in series [2], the inhibition at 4 h, 30 µM worked out at 1.8%. Moreover, the Kinetic_solubility in series [3] is over 250 µg/mL. This compound came in with an IC50 in series [4] of over 50 µM.

`O=C(NCCc1ccncc1)C1CCN(C(=O)c2ccccc2Cc2ccc(Cl)cc2)CC1` displayed a CC50 in [1] of 70.7 µM. The inhibition at 4 h, 30 µM in [2] was 22.6%. The t1/2 in series [5] is reported as 3 min. Also, the solubility kinetic in [3] was 62 µg/mL. The compound also displayed an IC50 in series [4] of 1.46 µM.

Compound `O=C(NCCc1ccncc1)C1CCN(c2cc(=O)n(-c3ccc(Cl)cc3)c3ccccc23)CC1` yielded a CC50 in [1] of over 100 µM.

The compound `O=C(NCCc1ccncc1)C1CCN(C(=O)c2cccc3c2[nH]c2ccc(Cl)cc23)CC1` showed a CC50 in [1] of 66.1 µM. For the same compound, the IC50 in series [4] came out at 18.7 µM.

The term half-life denotes the time in which the quantity being followed falls by half. As for `O=C(NCCc1ccncc1)C1CCN(C(=O)c2cc3ccccc3n2Cc2ccc(Cl)cc2)CC1`, the half-life at 1 µM in series [12] was 9 min. Moreover, the solubility kinetic in series [3] turned out to be 31 µg/mL. Further, the IC50 in series [13] was determined as 1 µM; in [14], 0.1 µM; in series [4], 0.53 µM.

In [1], `O=C(NCCc1ccncc1)C1CCN(C(=O)c2cccc3c2[nH]c2ccccc23)CC1` displayed a CC50 of over 100 µM. In [4], the IC50 came out at 59.2 µM.

As to `O=C(NCCc1ccncc1)C1CCN(C(=O)Cc2ccc(Cl)cc2)CC1`, the CC50 in series [1] is over 100 µM. This compound also showed an IC50 in [4] of over 100 µM.

`O=C(NCCc1ccncc1)C1CCN(C(=O)[C@H]2CCCN2C(=O)c2ccc(Cl)cc2)CC1` had a CC50 in series [1] of over 100 µM. The compound further showed an IC50 in [4] of over 100 µM.

As for `O=C(NCCc1ccncc1)C1CCN(C(=O)c2ccccc2Nc2ccc(Cl)cc2)CC1`, the CC50 in series [1] is over 100 µM. Further, in series [2], the inhibition at 4 h, 30 µM worked out at 47.7%. Also, the t1/2 in series [5] was determined as 19 min. Further, the Kinetic_solubility in [3] is over 250 µg/mL. The Activity is recorded as 3.7 ×10⁶ PFU/ml in series [6]; 58.1% in [7]; 3.2 ×10⁶ PFU/ml in series [8]; 54.6% in [10]; 49.2 ×10⁶ PFU/ml in series [11]. Besides, the IC50 stood at 5.2 µM in [13], 2.2 µM in [14] and 1.6 µM in series [4]. Besides, the inhibition entry in series [13] is “Dose-dependent effect”. The “fold change (FC)” value in series [15], in series [16] and in series [17] was 10 throughout. Also, the inhibition result in series [18] is “inactive”.

Consider `COc1cc2c(cc1OC)CN(CCc1ccc(NC(=O)c3cc(OC)c(OC)cc3NC(=O)c3cnc4ccccc4c3)cc1)CC2`, for which the Activity in [19] worked out at 1123%.

`O=C(NCCc1ccncc1)C1CCN(C(=O)CCc2ccc(Cl)cc2)CC1` returned a CC50 in [1] of over 100 µM. In [4], this compound returned a 50% inhibitory concentration (IC50) of over 100 µM.

`O=C(NCCc1ccncc1)C1CCN(C(=O)c2ccccc2NCc2ccc(Cl)cc2)CC1` displayed a CC50 in [1] of 75.2 µM. Also, the inhibition at 4 h, 30 µM in series [2] amounted to 59.6%. Moreover, the t1/2 in series [5] is reported as 15 min. Moreover, in [3], the Kinetic_solubility is over 250 µg/mL. In addition, the Activity in series [6] was 3.2 ×10⁶ PFU/ml; in [7] it was 66.6%; in series [8], 1.6 ×10⁶ PFU/ml; in series [9] it was 9.4 ×10⁶ PFU/ml; in series [10], 73.3%; in series [11], 11.7 ×10⁶ PFU/ml. Also, the IC50 in [13] stood at 2.3 µM; in series [14], 1 µM; in [4] it was 0.56 µM. In addition, the inhibition entry in series [13] was “Dose-dependent effect”. In addition, the “fold change (FC)” value in series [15], in series [16] and in [17] was 10 in each case. In addition, the inhibition result in series [18] was “inactive”.

Regarding `O=C(NCCc1ccncc1)C1CCN(C(=O)c2cccn2Cc2ccc(Cl)cc2)CC1`, the CC50 in series [1] is over 100 µM. In [12], the half-life at 1 µM came to 3 min. Moreover, in [3], the solubility kinetic turned out to be 125 µg/mL. This compound also came in with an IC50 in series [4] of 0.68 µM.

In turn, `O=C(NCCc1ccncc1)C1CCN(C(=O)c2ccccc2NCCc2ccc(Cl)cc2)CC1` came in with a CC50 in series [1] of 86 µM. The inhibition at 4 h, 30 µM in series [2] came to 30.7%. In series [3], the Kinetic_solubility was over 250 µg/mL. In series [4], the IC50 is 3.49 µM.

In the case of `O=C(NCCc1ccncc1)C1CCN(C(=O)c2ccccc2Nc2ccccc2)CC1`, in series [1], the CC50 was over 100 µM. In series [2], the inhibition at 4 h, 30 µM was determined as 10.9%. The Kinetic_solubility in [3] was over 250 µg/mL. In [4], this compound returned an IC50 of 28.8 µM.

The compound `O=C(NCCc1ccncc1)C1CCN(c2cc(=O)n(Cc3ccc(Cl)cc3)c3ccccc23)CC1` displayed a CC50 in series [1] of 34.1 µM. For the same compound, it took 10.9 µM to reach half-maximal inhibition in series [4] (IC50).

Consider `O=C(NCCc1ccncc1)C1CCN(C(=O)[C@@H]2CCCN2Cc2ccc(Cl)cc2)CC1`, for which, in [1], it took 91.6 µM to reach half-maximal cytotoxicity (CC50). Besides, in [4], the IC50 was 13.5 µM.
